Patent US11708348B2, “Protease inhibitors for treatment of coronavirus infections” (The Scripps Research Institute, priority 2021, dated 2023)

system: SARS-CoV-2 strain USA-WA1/2020; test: microbe, parasite or virus in culture; format: cell-based; details: Severe acute respiratory syndrome coronavirus 2, HeLa-ACE2, 24 h, HeLa-ACE2 cells, SARS-CoV-2 infection, 24 h; class symbols; read-out: EC50, uM (Hela)

Structure (SMILES)	EC50 [µM]
Cc1ccc(F)cc1NC(=O)C(=O)N[C@@H](CC(C)C)C(=O)N[C@@H](C[C@@H]1CCNC1=O)C(=O)COc1c(F)c(F)cc(F)c1F [Compound 83, Nl-(5-fluoro-2-methylphenyl)-N2-((S)-4-methyl-1-oxo-1-(((S)-3-oxo-1-((S)-2-oxopyrrolidin-3-yl)-4-(2,3,5,6-tetrafluorophenoxy)butan-2-yl)amino)pentan-2-yl)oxalamide]	< 0.05
CC(C)(C)CC(O)C(=O)N1C[C@H]2[C@@H]([C@H]1C(=O)N[C@@H](C[C@@H]1CCNC1=O)C(=O)COC(F)(F)F)C2(C)C (stereo partly drawn) [Compound 347, (1R,2S,5S)-3-(2-hydroxy-4,4-dimethylpentanoyl)-6,6-dimethyl-N-((S)-3-oxo-1-((S)-2-oxopyrrolidin-3-yl)-4-(trifluoromethoxy)butan-2-yl)-3-azabicyclo-[3.1.0]hexane-2-carboxamide]	< 0.05
CC[C@@H](O)C(=O)N1[C@H](C(=O)N[C@@H](C[C@@H]2CCNC2=O)C(=O)COC(F)(F)F)C[C@@H]2CCCC[C@@H]21 [Compound 373, (2S,3aS,7aS)-1-((R)-2-hydroxybutanoyl)-N-((S)-3-oxo-1-((S)-2-oxopyrrolidin-3-yl)-4-(trifluoro-methoxy)butan-2-yl)octahydro-1H-indole-2-carboxamide]	0.2 to 0.5

same assay, conditions: Severe acute respiratory syndrome coronavirus 2, HeLa-ACE2, 24 h, HeLa-ACE2 cells, SARS-CoV-2 infection, 24 h; read-out: EC50, uM (Hela)

Structure (SMILES)	EC50 [µM]
CC(C)C[C@H](Nc1cc2ccccc2[nH]c1=O)C(=O)N[C@@H](C[C@@H]1CCNC1=O)C(=O)COC(F)(F)F [Compound 465, (S)-4-methyl-2-((2-oxo-1,2-dihydroquinolin-3-yl)amino)-N-((S)-3-oxo-1-((S)-2-oxopyrrolidin-3-yl)-4-(trifluoromethoxy)butan-2-yl)pentanamide]	0.2 to 0.5
CS(=O)(=O)NC/C=C/C[C@@H](O)C(=O)N1CC2(CC2)C[C@H]1C(=O)N[C@@H](C[C@@H]1CCNC1=O)C(=O)COC(F)(F)F [Compound 675, (S)-5-((R,E)-2-hydroxy-6-(methylsulfonamido)hex-4-enoyl)-N-((S)-3-oxo-1-((S)-2-oxopyrrolidin-3-yl)-4-(trifluoromethoxy)butan-2-yl)-5-azaspiro[2.4]heptane-6-carboxamide]	0.2 to 0.5
Cn1ccc(C(=O)N2C[C@@H]3CCC[C@@H]3[C@H]2C(=O)N[C@@H](C[C@@H]2CCNC2=O)C(=O)COC(F)(F)F)n1 [Compound 533, (1S,3aR,6aS)-2-(1-methyl-1H-pyrazole-3-carbonyl)-N-((S)-3-oxo-1-((S)-2-oxopyrrolidin-3-yl)-4-(trifluoromethoxy)butan-2-yl)octahydrocyclo-penta[c]pyrrole-1-carboxamide]	0.5 to 1
CC(C)C[C@@H](O)C(=O)N1[C@H](C(=O)N[C@@H](C[C@@H]2CCNC2=O)C(=O)COC(F)(F)F)CCC1(C)C [Compound 787, (S)-1-((R)-2-hydroxy-4-methylpentanoyl)-5,5-dimethyl-N-((S)-3-oxo-1-((S)-2-oxopyrrolidin-3-yl)-4-(trifluoromethoxy)butan-2-yl)pyrrolidine-2-carboxamide]	0.05 to 0.2
O=C1NCC[C@H]1C[C@H](NC(=O)[C@@H]1CC2(CC2)CN1C(=O)[C@H](O)C1CCC1)C(=O)COC(F)(F)F [Compound 760, (S)-5-((R)-2-cyclobutyl-2-hydroxyacetyl)-N-((S)-3-oxo-1-((S)-2-oxopyrrolidin-3-yl)-4-(trifluoromethoxy)butan-2-yl)-5-azaspiro[2.4]heptane-6-carboxamide]	0.05 to 0.2
Cc1ccccc1NC(=O)C(=O)N1C[C@H]2[C@@H]([C@H]1C(=O)N[C@@H](C[C@@H]1CCNC1=O)C(=O)COC(F)(F)F)C2(C)C [Compound 473, (1R,2S,5S)-6,6-dimethyl-N-((S)-3-oxo-1-((S)-2-oxopyrrolidin-3-yl)-4-(trifluoromethoxy)butan-2-yl)-3-(2-oxo-2-(o-tolylamino)acetyl)-3-azabicyclo[3.1.0]hexane-2-carboxamide]	< 0.05
